Test results reported in patent US12590294B2, “Process for producing cardiomyocytes” (Oxford University Innovation Limited, priority 2020, dated 2026).

How the values were obtained:
[1] = tested on: hiPSC derived atrial cardiomyocytes; assay: Ca2+ transient imaging (Fluo4 optical mapping) with adrenergic agonists and antagonists; type: cell-based, human
Method: (§1) Optical mapping experiments were carried out after the cells started to contract. The responsiveness of the derived CMs in the experimental group to β and α adrenergic receptor agonists and antagonists was measured. Intracellular calcium transients were analysed using a 128×128 EMCCD camera (Photometrics, Tucson, USA). The derived CMs were pre-loaded with 1 μM Fluo4 (Molecular Probes by Life Technologies) dissolved in DMSO for 15 min at 37° C. in CMM. Calcium transients of the derived CMs were first recorded without the addition of the drugs as control. Recordings were then taken at 0 min, 5 min, 10 min and 15 min after 100 nM Isoprenaline (ISO) treatment. Using the same method, the responsiveness of the derived CMs in the experimental group to 10 μM Phenylephrine (PE) treatment was tested. […] Recordings were taken in the same way as described above. Similarly, the cells were pre-treated with 1 μM Prazosin dissolved in Fluo4 loading solution before a treatment of 10 μM PE. Metamorph was used to take the recordings, and 4000 or 8000 frames were taken for each recording, with a frame rate of 100 Hz (for 4000 frames) or 333.33 Hz (for 8000 frames). Regions of interest were selected using ImageJ. Raw traces were analysed and baseline corrections were conducted using Clampfit. Calcium transient amplitude change was calculated based on averaged trace. Part of the analysis was performed using custom MATLAB algorithms. To calculate beat-to-beat CaT50, the mean signal was segmented into individual beats. Representative regions were defined as two 16 by 16 pixel regions.
as §1, with “β and a adrenergic receptor” for “β and α adrenergic receptor”, “traces were analyzed and baseline” for “traces were analysed and baseline”, “was performed by the collaborator group from University of Birmingham using custom” for “was performed using custom”
We also tested whether hiPSC derived atrial cardiomyocytes responded to adrenoceptor stimulation by a or p adrenoceptor agonists. The presence of a functional al-adrenoceptor signaling pathway was first tested by exposure of hiPSC derived atrial cardiomyocytes to phenylephrine, which in adult atrial CMs increases the amplitude of Ca^2+ transients. Phenylephrine is an al-adrenoceptor agonist coupled to Gq and the mechanism of increase in Ca^2+ transient amplitude is associated with an increase cellular IP3 levels. Atrial cardiomyocytes from Days 25-30 post initiation of differentiating human iPSC derived atrial cardiomyocytes were used to assess the effect of phenylephrine on Ca^2+ transient amplitude. […]

[2] = tested on: monolayer HiPSC-AM sheets; assay: Optical mapping of monolayer HiPSC-AM sheets, adrenergic stress induced CaT alternans; type: cell-based, human; details: 100 nM ISO; regular pacing at 0.5-1 Hz
Method: Optical mapping experiments were carried out after the cells started to contract. The responsiveness of the derived CMs in the experimental group to β and a adrenergic receptor agonists and antagonists was measured. Intracellular calcium transients were analysed using a 128×128 EMCCD camera (Photometrics, Tucson, USA). The derived CMs were pre-loaded with 1 μM Fluo4 (Molecular Probes by Life Technologies) dissolved in DMSO for 15 min at 37° C. in CMM. Calcium transients of the derived CMs were first recorded without the addition of the drugs as control. Recordings were then taken at 0 min, 5 min, 10 min and 15 min after 100 nM Isoprenaline (ISO) treatment. Using the same method, the responsiveness of the derived CMs in the experimental group to 10 μM Phenylephrine (PE) treatment was tested. In adrenergic receptor antagonist tests, the cells were pre-treated with 600 nM CGP20712A (CGP) (Sigma) dissolved in Fluo4 loading solution prior to 100 nM ISO treatment. Recordings were taken in the same way as described above. Similarly, the cells were pre-treated with 1 μM Prazosin dissolved in Fluo4 loading solution before a treatment of 10 μM PE. […] Raw traces were analyzed and baseline corrections were conducted using Clampfit. Calcium transient amplitude change was calculated based on averaged trace. […]

## Cn1cc(C(F)(F)F)nc1-c1ccc(OCC(O)CNCCOc2ccc(O)c(C(N)=O)c2)cc1 (centres unmarked) [CGP20712A]
[1]; 600 nM GCP pre-treated, recorded 10 min after 10 uM PE (so in the source)
  effects of adrenergic stimulation after β-adrenergic antagonist pre-treatment: abolished
[1]; CGP20712A 300 nM alone
  effect on the amplitude of Ca2+ transients, antagonist by itself: no effect

## CC(C)NCC(O)c1ccc(O)c(O)c1 (centres unmarked) [isoproterenol]
[2]
  CaT alternans: occurred
[1]; isoproterenol 100 nM, n=5 batch of cells
  increase in the amplitude of Ca2+ transients: 26±5%
[1]; isoproterenol with CGP20712A (300 nM) present, n=5 batch of cells
  effect on the amplitude of Ca2+ transients when CGP20712A was present: without effect

## CNC[C@H](O)c1cccc(O)c1 [phenylephrine]
[1]; 10 μM phenylephrine
  effect on Ca2+ transient decay time: no effect
  effect on Ca2+ transient rise time: no effect
[1]; 10 μM phenylephrine in the presence of prazosin, n=5 batch of cells
  change in the amplitude of Ca2+ transients in the presence of prazosin: did not cause any significant change
[1]; 10 μM phenylephrine, fluo-4 fluorescence, Days 25-30, n=5 batch of cells
  increase in Ca2+ transient amplitude: 28±10%

## COc1cc2nc(N3CCN(C(=O)c4ccco4)CC3)nc(N)c2cc1OC [prazosin]
[1]; 1 μM prazosin alone
  effect on the amplitude of Ca2+ transients, antagonist by itself: no effect
[1]; 1 uM prazosin pre-treated, recorded 10 min after 10 uM PE
  effects of adrenergic stimulation by 10 uM PE after antagonist pre-treatment: abolished
